Measured values reported in patent publication US7626027B2, “Substituted 1H-pyrrolo[2,3-c]pyridine-2-carboxamides and related analogs as inhibitors of casein kinase Iε” (Aventis Pharmaceuticals Inc, priority 2003, dated 2009).
Read-outs that look alike come from different tables or passages of the source.

Experiments:
casein kinase 1ε = target: T1, casein kinase 1ε (Homo sapiens, UniProt P49674); experiment: Casein Kinase Epsilon 33P-ATP Filter Plate Assay; assay type: biochemical
T1 construct: made in house
T1 sequence (P49674 whole entry): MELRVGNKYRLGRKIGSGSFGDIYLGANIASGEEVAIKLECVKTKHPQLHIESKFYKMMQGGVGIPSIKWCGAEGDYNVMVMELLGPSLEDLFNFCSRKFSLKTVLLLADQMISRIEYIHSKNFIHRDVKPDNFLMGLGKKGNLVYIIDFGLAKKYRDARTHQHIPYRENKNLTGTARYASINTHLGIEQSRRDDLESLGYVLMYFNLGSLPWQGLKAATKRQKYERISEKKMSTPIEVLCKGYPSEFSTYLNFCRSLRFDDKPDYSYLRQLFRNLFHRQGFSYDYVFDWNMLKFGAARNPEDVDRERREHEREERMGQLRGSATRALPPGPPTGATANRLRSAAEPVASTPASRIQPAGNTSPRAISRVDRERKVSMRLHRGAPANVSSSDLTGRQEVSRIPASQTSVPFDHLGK
From the text: Casein Kinase Epsilon ^33P-ATP Filter Plate Assay for Screening CK1 Inhibitors Purpose: This assay measures the effect of compounds to inhibit the phosphorylation of the substrate casein by the enzyme casein kinase 1ε using an in vitro ^33P-ATP filtration assay.
Equipment: • Beckman Biomek 2000 Liquid Handling Robot • Beckman Multimek 96 Automated 96 Channel Pipettor • Millipore Vacuum Manifold Basic Kit # MAVM0960R • Titertek Multidrop Liquid Dispenser • Packard TopCount NXT Liquid Scintillation Counter
Enzyme: • Casein Kinase 1ε final concentration 0.58 mg/ml obtained from fermentation and purification processes performed by Aventis Pharmaceuticals Inc., France. The above are stored as 100 μL aliquots at minus 80° C.
Compounds: • Compounds for testing are supplied as frozen 10 mM compound stock dissolved in 100% DMSO. Assay Conditions:
Final total assay volume per well is equal to 50 μL made up as follows: • 5 μL of diluted compound stock ([…], 0.1, 0.01 or 0.001 μM), • 5 μL of dephosphorylated casein final concentration 0.2 μg/μL, • 20 μL of CK1ε final concentration 3 ng/μL, and • 20 μL of γ-^33P-ATP final concentration 0.02 μCi/μL mixed with cold ATP (10 μM final). Methodology: • 1. 500 mL of fresh assay buffer is made: 50 mM Tris pH 7.5, 10 mM MgCl2, 2 mM DTT and 1 mM EGTA • 2. Compounds to be evaluated are obtained as 10 μL of 10 mM stock dissolved in 100% DMSO. Using a Biomek 2000 liquid handling robot, serial dilutions are made to yield 10, 1, 0.1, 0.01 and 0.001 μM final compound dilutions added as 5 μL additions to Falcon U bottom plates. […] A routine screening assay will consist of 32 compounds, which equals 4 assay plates. • 3. Assay plate maps are set up according to the following pattern
• 4. […] Finally 20 μL […] (0.02 μCi/μL)/10 μM cold ATP are added (equals approximately 2×10^6 CPM per well). • 6. The Falcon U-Bottom assay plate containing the above 50 μL reaction volume is vortexed and then incubated at room temperature for 2 hours. • 7. At the end of 2 hours, the reaction is stopped by the addition of 65 μL of ice cold 2 mM cold ATP (made up in assay buffer) to the assay plates using a Beckman Multimek • 8. At the same time 25 μL 100% ice cold TCA made up in distilled H2O is added to a matching number of Millipore MAPH filter plates. • 9. Using a handheld 8-channel pipettor, 100 μL of the reaction mixture is transferred from the Falcon U-Bottom Plate to the Millipore MAPH filter plates presoaked with TCA. • 10. The Millipore MAPH filter plates are mixed gently and allowed to sit at room temperature for at least 30 minutes to precipitate the proteins. • 11. After 30 minutes the filter plates are placed on a Millipore vacuum manifold and filtered at no more than 8 mm Hg as the MAPH filters tend to “air lock” at higher vacuum settings. • 12. The filter plates are sequentially washed and filtered with 2×150 μL 20% TCA, 2×150 μL 10% TCA and 2×150 μL 5% TCA (total of 6 washes per plate/900 μL per well). • 13. Plates are allowed to dry overnight at room temperature. The next day 40 μL Packard Microscint-20 Scintillation Fluid is added per well using a Titertek Multidrop dispenser; the plates are sealed and counted for 2 minutes/well in a Packard Topcount NXT Scintillation Counter (CPM values/well are captured). Calculation: • 1. Counts Per Minute (CPM) data is captured and imported into a proprietary data calculation and archiving database (Activity Base by IDBS version 5.0). • 2. Column 1 for each plate reflects total phosphorylation activity of the enzyme in the absence of any inhibiting compound and thus represents 100%. Column 12 reflects any nonspecific phosphorylation/retained radioactivity activity in the absence of inhibiting compound and enzyme.

[1] = test system: Mper1-luc Rat-1 fibroblasts (P2C4); experiment: Cellular Circadian Assay (Mper1-luc reporter period lengthening); assay type: cell-based; details: effective micromolar concentration that induced a 1 hour lengthening of circadian period
From the text: The assay consists of Rat-1 fibroblasts stably expressing an Mper1-luc construct, thus enabling the determination of the rhythmic activation of the Mper1 promoter in living cells by repeatedly estimating luciferase activity by monitoring light-output over several days. The repeated measure format of the assay permits accurate and reproducible assessment of the concentration-dependent effects of CKIε inhibitors on circadian rhythm and provides the nexus for relating CKIε inhibition to circadian period alteration.
Cellular Circadian Assay Experimental Procedures
Stable transfection: Rat-1 fibroblast cultures at 30-50% confluence were co-transfected with vectors containing the Zeocin resistance selectable marker for stable transfection and an mPer-1 promoter-driven luciferase reporter gene. After 24-48 hours, cultures were split onto 96 well plates and maintained in growth media supplemented with 50-100 μg/mL Zeocin (Invitrogen #45-0430) for 10-14 days. Zeocin-resistant stable transfectants were assessed for reporter expression by supplementing growth media with 100 μM luciferin (Promega #E1603) and assaying luciferase activity on a TopCount scintillation counter (Packard Model #C384V00). […] Mper1-luc Rat-1 fibroblasts clone P2C4 was selected for compound testing. […] After synchronization, cultures were rinsed with 100 μL EMEM (Celigro #10-010-CV) for 10 minutes at room temperature. […] Compounds tested for circadian effects were added to CO2-independent media in 0.3% DMSO (final concentration). […] In Vivo luciferase activity was estimated by measuring relative light output on a TopCount scintillation counter (Packard Model #C384V00). Plates were transferred from incubator to reader using an ORCA robotic arm (Beckman Instruments) and SAMI-NT automated scheduling software (Version 3.3; SAGIAN/Beckman Instruments). Data Analysis: Microsoft Excel and XLfit (Version 2.0.9; IDBS) were used to import, manipulate and graph data. Period analysis was performed either by determining the interval between relative light output minima over several days or by Fourier Transform. […] Potency is reported as EC≡t+1h, which is presented as the effective micromolar concentration that induced a 1 hour lengthening of period. The data was analyzed by fitting a hyperbolic curve to the data expressed as period change (y-axis) versus the concentration of test compound (x-axis) in XLfit and the EC[…]t+1h was interpolated from this curve.

NC(=O)c1[nH]c2cccnc2c1Sc1ccccc1 [Ia-1, 3-Phenylsulfanyl-1H-pyrrolo[3,2-b]pyridine-2-carboxylic acid amide]
IC50 (casein kinase 1ε): 36 nM | Cell Assay ECΔτ+1h [1]: 0.27 µM | melting point: 251 °C

NC(=O)c1[nH]c2cccnc2c1Sc1cccc(F)c1 [Ia-2, 3-(3-Fluorophenylsulfanyl)-1H-pyrrolo[3,2-b]pyridine-2-carboxylic acid amide]
IC50 (casein kinase 1ε): 74 nM | Cell Assay ECΔτ+1h [1]: 0.51 µM | melting point: 235 to 237 °C

NC(=O)c1[nH]c2cccnc2c1Sc1cccc(Cl)c1 [Ia-3, 3-(3-Chlorophenylsulfanyl)-1H-pyrrolo[3,2-b]pyridine-2-carboxylic acid amide]
IC50 (casein kinase 1ε): 26 nM | Cell Assay ECΔτ+1h [1]: 0.31 µM | melting point: 246.5 to 248 °C

NC(=O)c1[nH]c2cccnc2c1Sc1cccc(Br)c1 [Ia-4, 3-(3-Bromophenylsulfanyl)-1H-pyrrolo[3,2-b]pyridine-2-carboxylic acid amide]
IC50 (casein kinase 1ε): 25 nM | Cell Assay ECΔτ+1h [1]: 0.12 µM

NC(=O)c1[nH]c2cccnc2c1Sc1ccccc1Cl [Ia-5, 3-(2-Chlorophenylsulfanyl)-1H-pyrrolo[3,2-b]pyridine-2-carboxylic acid amide]
IC50 (casein kinase 1ε): 6530 nM | Cell Assay ECΔτ+1h [1]: 1.13 µM

NC(=O)c1[nH]c2cccnc2c1Sc1ccc(Cl)cc1Cl [Ia-7, 3-(2,4-Dichlorophenylsulfanyl)-1H-pyrrolo[3,2-b]pyridine-2-carboxylic acid amide]
IC50 (casein kinase 1ε): > 10000 nM | melting point: 266 °C

NC(=O)c1[nH]c2cccnc2c1Sc1ccccc1F [Ia-8, 3-(2-Fluorophenylsulfanyl)-1H-pyrrolo[3,2-b]pyridine-2-carboxylic acid amide]
IC50 (casein kinase 1ε): 531 nM | Cell Assay ECΔτ+1h [1]: 0.75 µM

NC(=O)c1[nH]c2cccnc2c1Sc1ccccc1C(F)(F)F [Ia-10, 3-(2-Trifluormethylphenylsulfanyl)-1H-pyrrolo[3,2-b]pyridine-2-carboxylic acid amide]
IC50 (casein kinase 1ε; phosphorylation of casein, 10 μM cold ATP, 2 hours room temperature, * denotes average of 2 or more determinations, read-out: Casein Kinase Iε 33P-ATP Filter Plate Assay IC50): 2890 nM | Cell Assay ECΔτ+1h [1]: 2.94 µM

NC(=O)c1[nH]c2cccnc2c1Sc1ccccc1N [Ia-12, 3-(2-Aminophenylsulfanyl)-1H-pyrrolo[3,2-b]pyridine-2-carboxylic acid amide]
IC50 (casein kinase 1ε): 36 nM | Cell Assay ECΔτ+1h [1]: 0.44 µM

COc1cccc(Sc2c(C(N)=O)[nH]c3cccnc23)c1 [Ia-15, 3-(3-Methoxy-phenylsulfanyl)-1H-pyrrolo[3,2-b]pyridine-2-carboxylic acid amide]
IC50 (casein kinase 1ε): 109 nM | Cell Assay ECΔτ+1h [1]: 1.1 µM

NC(=O)c1[nH]c2cccnc2c1Sc1cccc([N+](=O)[O-])c1 [Ia-18, 3-(3-Nitro-phenylsulfanyl)-1H-pyrrolo[3,2-b]pyridine-2-carboxylic acid amide]
IC50 (casein kinase 1ε): 186 nM | Cell Assay ECΔτ+1h [1]: >10 µM

Cc1ccc(Sc2c(C(N)=O)[nH]c3cccnc23)cc1 [Ia-20, 3-p-Tolylsulfanyl-1H-pyrrolo[3,2-b]pyridine-2-carboxylic acid amide]
IC50 (casein kinase 1ε): 261 nM | Cell Assay ECΔτ+1h [1]: >10 µM

Cc1cccc(Sc2c(C(N)=O)[nH]c3cccnc23)c1 [Ia-22, 3-m-Tolylsulfanyl-1H-pyrrolo[3,2-b]pyridine-2-carboxylic acid amide]
IC50 (casein kinase 1ε): 73 nM | Cell Assay ECΔτ+1h [1]: >10 µM

NC(=O)c1[nH]c2cccnc2c1Sc1cccc2cccnc12 [Ia-25, 3-(Quinolin-8-ylsulfanyl)-1H-pyrrolo[3,2-b]pyridine-2-carboxylic acid amide]
IC50 (casein kinase 1ε): 1550 nM | Cell Assay ECΔτ+1h [1]: 2.26 µM

CCCn1c(C(N)=O)c(Sc2ccccc2)c2ncccc21 [Ia-37, 3-Phenylsulfanyl-1-propyl-1H-pyrrolo[3,2-b]pyridine-2-carboxylic acid amide]
IC50 (casein kinase 1ε): 123 nM

NC(=O)c1[nH]c2ccncc2c1Sc1ccccc1 [Ib-1, 3-Phenylsulfanyl-1H-pyrrolo[3,2-c]pyridine-2-carboxylic acid amide]
IC50 (casein kinase 1ε): 1130 nM

NC(=O)c1[nH]c2ccncc2c1Sc1cccc(F)c1 [Ib-2]
IC50 (casein kinase 1ε): 466 nM

NC(=O)c1[nH]c2ccncc2c1Sc1ccc(Cl)cc1 [Ib-3]
IC50 (casein kinase 1ε): 7960 nM

NC(=O)c1[nH]c2cnccc2c1Sc1ccccc1 [Ic-1, 3-Phenylsulfanyl-1H-pyrrolo[2,3-c]pyridine-2-carboxylic acid amide]
IC50 (casein kinase 1ε): 388 nM

NC(=O)c1[nH]c2cnccc2c1S(=O)(=O)c1ccccc1 [Ic-2, 3-Benzenesulfonyl-1H-pyrrolo[2,3-c]pyridine-2-carboxylic acid amide]
IC50 (casein kinase 1ε): > 10000 nM

NC(=O)c1[nH]c2cnccc2c1Sc1cccc(F)c1 [Ic-3, 3-(3-Fluoro-phenylsulfanyl)-1H-pyrrolo[2,3-c]pyridine-2-carboxylic acid amide]
IC50 (casein kinase 1ε): 1840 nM

COc1cccc(Sc2c(C(N)=O)[nH]c3cnccc23)c1 [Ic-4, 3-(3-Methoxy-phenylsulfanyl)-1H-pyrrolo[2,3-c]pyridine-2-carboxylic acid amide]
IC50 (casein kinase 1ε): 397 nM

NC(=O)c1[nH]c2cnccc2c1Sc1cccc(Cl)c1 [Ic-5, 3-(3-Chloro-phenylsulfanyl)-1H-pyrrolo[2,3-c]pyridine-2-carboxylic acid amide]
IC50 (casein kinase 1ε): 375 nM

NC(=O)c1[nH]c2cnccc2c1Sc1ccccc1C(F)(F)F [Ic-6, 3-(2-Trifluoromethyl-phenylsulfanyl)-1H-pyrrolo[2,3-c]pyridine-2-carboxylic acid amide]
IC50 (casein kinase 1ε): 759 nM

NC(=O)c1[nH]c2cnccc2c1Sc1ccccc1OC(F)(F)F [Ic-7, 3-(2-Trifluoromethoxy-phenylsulfanyl)-1H-pyrrolo[2,3-c]pyridine-2-carboxylic acid amide]
IC50 (casein kinase 1ε): 1290 nM

COc1ccccc1Sc1c(C(N)=O)[nH]c2cnccc12 [Ic-8, 3-(2-Methoxy-phenylsulfanyl)-1H-pyrrolo[2,3-c]pyridine-2-carboxylic acid amide]
IC50 (casein kinase 1ε): 442 nM

NC(=O)c1[nH]c2cnccc2c1Sc1ccccn1 [Ic-9, 3-(Pyridin-2-sulfanyl)-1H-pyrrolo[2,3-c]pyridine-2-carboxylic acid amide]
IC50 (casein kinase 1ε): 291 nM
